{"source": "patent US5043166A", "about": "“Liposome/anthraquinone drug composition and method” (priority 1989, dated 1991)", "key": {"[1]": {"assay": "peroxidation in liposomes with chelators", "type": "physicochemical"}, "[2]": {"settings": "Ca^2+; cited from earlier work"}, "[3]": {"settings": "Fe^3+; cited from earlier work"}, "[4]": {"assay": "chemical modification of DXR in stored liposomes", "type": "physicochemical", "settings": "stored anoxic 1 day at 4° C.", "method": "The liposomes were stored under anoxic conditions for 1 day at 4° C., as above. Chemical modification of the drug was detected both by fluorescence emission spectroscopy and by assaying the change in drug toward a more lipophilic species, as described in Section A above."}, "[5]": {"settings": "Co^2+; cited from earlier work"}, "[6]": {"settings": "Zn^2+; cited from earlier work"}, "[7]": {"settings": "in vivo; cited from earlier work"}, "[8]": {"settings": "Mg^2+; cited from earlier work"}, "[9]": {"settings": "Ni^2+; cited from earlier work"}, "[10]": {"settings": "Cu^2+; cited from earlier work"}, "[11]": {"settings": "Fe^2+; cited from earlier work"}, "[12]": {"settings": "prior to or concurrent with DXR administration; cited from earlier work"}}, "note": "Read-outs that look alike come from different tables or passages of the source.", "data": [{"molecule": "O=C(O)CN(CCN(CC(=O)O)CC(=O)O)CCN(CC(=O)O)CC(=O)O", "note": "[DTPA]", "values": [{"measurement": "effect on anthraquinone modification in vitro", "setting": "[1]; in the presence of lipids and ferric iron", "value": "protective effect"}]}, {"molecule": "O=C(O)CN(CCN(CC(=O)O)CC(=O)O)CC(=O)O", "note": "[EDTA, ethylenediaminetetraacetic acid]", "values": [{"measurement": "effect on peroxidation damage in liposomes", "setting": "[1]", "value": "peroxidation-stimulating effect"}]}, {"molecule": "CC(=O)N(O)CCCCCNC(=O)CCC(=O)N(O)CCCCCNC(=O)CCC(=O)N(O)CCCCCN", "note": "[ferrioxamine, ferrioxamine B]", "values": [{"measurement": "Binding Affinity", "setting": "[2]", "value": "10^2"}, {"measurement": "Binding Affinity", "setting": "[3]", "value": "10^31"}, {"measurement": "protection against drug modification", "setting": "[4]", "value": "moderate protections"}, {"measurement": "Binding Affinity", "setting": "[5]", "value": "10^11"}, {"measurement": "Binding Affinity", "setting": "[6]", "value": "10^11"}, {"measurement": "safety for parenteral use in humans", "setting": "[7]", "value": "proven safe for parenteral use in humans"}, {"measurement": "Binding Affinity", "setting": "[8]", "value": "10^4"}, {"measurement": "Binding Affinity", "setting": "[9]", "value": "10^10"}, {"measurement": "Binding Affinity", "setting": "[10]", "value": "10^14"}, {"measurement": "Binding Affinity", "setting": "[11]", "value": "10^10"}]}, {"molecule": "Cc1c(C)c2c(c(C)c1O)CCC(C)(CCCC(C)CCCC(C)CCCC(C)C)O2", "note": "(stereo not drawn) [α-T, alpha-tocopherol]", "values": [{"measurement": "protection against drug modification", "setting": "[4]", "value": "moderate protections"}, {"measurement": "reduction of cardiotoxicity", "setting": "[12]", "value": "effective in reducing cardiotoxicity"}]}]}
